Structures can show the parent of a compound that is named as a salt.
Key:
hTLR4 = target: T1, hTLR4 (Homo sapiens, UniProt O00206+Q9Y6Y9); assay: HEK hTLR4 NF-κB driven SEAP reporter assay (hTLR4 activation); type: cell-based; details: 18 hours
T1 construct: expressed in transfected cells; host or cells: HEK cells expressing hTLR4 and an NF-κB driven SEAP reporter
Experimental: hTLR4 activation. HEK hTLR4-expressing cells were treated with 100 μM concentration of test compound followed by a 5-fold dilution series. HEK hTLR4-expressing cells also contained an NF-κB driven SEAP reporter and were stimulated with the indicated concentration (FIG. 1A-1C) of the test compound for 18 hours followed by assessment of the cellular supernatant for SEAP by a Quantikine SEAP assay (InvivoGen). The SEAP assay was used to look at secretion of the NF-κB driven alkaline-phosphatase reporter gene in response to TLR4 activation by the compounds and results are interpreted both in terms of potency of the compounds to induce SEAP activation (i.e. potency where a lower EC50 indicates higher potency) and efficacy for receptor activation (i.e. maximal SEAP induction).

primary hPBMCs [1] = assay: Induction of RANTES from primary hPBMCs (ELISA)
[2] = tested on: influenza virus antigen A/Victoria/210/2009-H3N2; assay: Vaccine adjuvant study, murine influenza virus vaccination model; type: in vivo, BALB/c mice; details: intramuscular, 0.1, 0.01 or 0.001 μg with 0.2 μg antigen, 14 days after single immunization, 2% glycine
Experimental: Vaccine adjuvant study. Compounds 2, 4, 5 and 7 were evaluated as vaccine adjuvant in a murine influenza virus vaccination model. 7-9 week old BALB/c mice (10 mice per group) were injected intramuscularly in a hind limb with the influenza virus antigen A/Victoria/210/2009-H3N2 (0.2 μg/mouse) with or without 0.1, 0.01 or 0.001 μg of compound 2, 4, 5 or 7 (formulated in 2% glycine). Fourteen days after a single immunization, animals were bled via the submandibular vein and serum was collected to assay for A/Victoria specific antibodies by ELISA assay (FIG. 7).

primary hPBMCs [3] = assay: Induction of MIP-1β from primary hPBMCs (ELISA)
hMM6 cells = assay: Induction of MIP-1β cytokine from hMM6 cells (ELISA); type: cell-based; details: Homo sapiens, 18 hours
Experimental: Induction of […] cytokine from hMM6 cells. The compounds were next tested in the established MM6 potency assay measuring MIP-1β cytokine production as an output measure of compound potency. Human monocytic cell line, Mono-Mac-6 (hMM6) was obtained from DSMZ (Brunswick, Germany). […] Treatments started at a 100 µM concentration proceeded with a 16-point, 5-fold dilution series. Supernatants were harvested and analyzed for production of MIP-1β via ELISA (R&D systems, catalog #DY271).

mRAW264.7 cells = assay: Induction of MIP-1β cytokine from mRAW264.7 cells (ELISA); type: cell-based; details: Mus musculus, 18 hours, read-out: mRaw MIP-1β EC50
Experimental: Induction of MIP-1β cytokine from mRAW264.7 cells. […] Treatments started at 20 μM concentration with a 5-fold serial dilution until 3.2768E-09 μM. Supernatants were harvested and analyzed for production of MIP-1β via ELISA (R& D Systems-cat #DY451).

[4] = Stability of aqueous formulations by reverse-phase-HPLC; type: physicochemical; details: 40° C.; formulated in 2.5% glycine (FIGS. 9, 12)
Experimental: Formulation. The salted compound was accurately weighed into depyrogenated glass vials, and the required volume of aqueous vehicle added to attain the desired concentration. Vials were placed in a sonication bath (sonication bath temperature≤45° C.) to assist solubility and reduce particle size to achieve sterile filtration without significant loss of compound. Once the solution appeared homogeneous, the particle size was periodically monitored by dynamic light scattering until the solution turned clear and the particle size was <200 mn, or the particle size no longer reduced with continued sonication. The formulation was filtered through a 0.22p PVDF membrane filter into a depyrogenated glass vial and the resulting solution quantitated by RP-HPLC.
Aqueous formulations of compounds 1, 2, 3, 4, 5 and 6 were aliquoted into small depyrogenated vials for stability evaluation at temperatures of 2°-8° C., 25° C., and 40° C. This mirrors ICH stability temperature guidelines, but humidity was not controlled. A vial was pulled for each time point/temperature and analyzed by reverse-phase-HPLC (FIGS. 9-14) according to the following schedule starting from 2 weeks to up to 12 months.

[5] = Homo sapiens, read-out: hPBMCs EC50 RANTES, Table 3a, Average of Donors 10, 5, 2
[6] = Homo sapiens, read-out: hPBMCs EC50 RANTES, Table 3a, Donor 2
[7] = Homo sapiens, read-out: hPBMCs EC50 RANTES, Table 3a, Donor 5
[8] = Homo sapiens, read-out: hPBMCs EC50 RANTES, Table 3a, Donor 10
[9] = Homo sapiens, read-out: hPBMCs EC50 MIP-1β, Table 3a, Average of Donors 10, 5, 2
[10] = Homo sapiens, read-out: hPBMCs EC50 MIP-1β, Table 3a, Donor 2
[11] = Homo sapiens, read-out: hPBMCs EC50 MIP-1β, Table 3a, Donor 5
[12] = Homo sapiens, read-out: hPBMCs EC50 MIP-1β, Table 3a, Donor 10
[13] = Homo sapiens, read-out: hPBMCs EC50 RANTES, Table 4b, Average of Donors 22, 5
[14] = Homo sapiens, read-out: hPBMCs EC50 RANTES, Table 4b, Donor 5
[15] = Homo sapiens, read-out: hPBMCs EC50 RANTES, Table 4b, Donor 22
[16] = Homo sapiens, read-out: hPBMCs EC50 MIP-1β, Table 4b, Average of Donors 22, 5
[17] = Homo sapiens, read-out: hPBMCs EC50 MIP-1β, Table 4b, Donor 5
[18] = Homo sapiens, read-out: hPBMCs EC50 MIP-1β, Table 4b, Donor 22
[19] = Homo sapiens, read-out: hPBMCs EC50 RANTES, Table 4c, one donor
[20] = Homo sapiens, 96 h, read-out: hPBMCs EC50 MIP-1β, Table 4d, one donor

T1 sequence (O00206 24-839): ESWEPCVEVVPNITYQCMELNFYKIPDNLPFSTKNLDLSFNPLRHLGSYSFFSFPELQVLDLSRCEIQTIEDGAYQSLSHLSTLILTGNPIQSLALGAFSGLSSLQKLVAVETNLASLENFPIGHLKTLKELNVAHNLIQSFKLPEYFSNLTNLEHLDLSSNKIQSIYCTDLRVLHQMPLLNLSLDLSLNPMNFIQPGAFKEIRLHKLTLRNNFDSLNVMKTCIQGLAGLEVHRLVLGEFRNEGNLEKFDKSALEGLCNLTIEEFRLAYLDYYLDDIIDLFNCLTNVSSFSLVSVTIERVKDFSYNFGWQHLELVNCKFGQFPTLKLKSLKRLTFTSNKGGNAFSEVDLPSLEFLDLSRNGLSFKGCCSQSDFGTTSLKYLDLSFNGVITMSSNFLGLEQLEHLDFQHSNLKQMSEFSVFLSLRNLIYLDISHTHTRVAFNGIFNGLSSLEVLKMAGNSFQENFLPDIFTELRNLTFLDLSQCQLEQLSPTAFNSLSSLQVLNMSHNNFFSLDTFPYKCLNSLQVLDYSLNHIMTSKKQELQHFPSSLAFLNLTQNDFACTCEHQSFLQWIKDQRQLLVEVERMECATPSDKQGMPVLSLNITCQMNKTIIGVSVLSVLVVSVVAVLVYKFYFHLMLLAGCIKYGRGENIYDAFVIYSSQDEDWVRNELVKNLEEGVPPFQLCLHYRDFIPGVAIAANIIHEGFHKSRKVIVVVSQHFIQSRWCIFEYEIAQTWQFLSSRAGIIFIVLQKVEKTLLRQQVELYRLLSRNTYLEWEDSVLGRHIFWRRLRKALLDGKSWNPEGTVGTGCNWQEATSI
T1 sequence (Q9Y6Y9 17-160 limits assumed): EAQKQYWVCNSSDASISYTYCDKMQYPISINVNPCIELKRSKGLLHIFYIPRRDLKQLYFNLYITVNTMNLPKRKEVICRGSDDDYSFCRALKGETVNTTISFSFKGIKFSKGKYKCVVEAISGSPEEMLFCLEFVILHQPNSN

| Compound | EC50 (hTLR4; Table 1b) | adjuvant effect on flu-specific IgG2a antibody titers compared to antigen alone [2] | EC50 (hTLR4; Table 1a) | EC50 (hMM6 cells) | EC50 (primary hPBMCs [1]; [5]) | EC50 (primary hPBMCs [1]; [6]) | EC50 (primary hPBMCs [1]; [7]) | EC50 (primary hPBMCs [1]; [8]) | EC50 (mRAW264.7 cells) | EC50 (primary hPBMCs [3]; [9]) | EC50 (primary hPBMCs [3]; [10]) | EC50 (primary hPBMCs [3]; [11]) | EC50 (primary hPBMCs [3]; [12]) | EC50 (primary hPBMCs [1]; [13]) | EC50 (primary hPBMCs [1]; [14]) | EC50 (primary hPBMCs [1]; [15]) | EC50 (primary hPBMCs [3]; [16]) | EC50 (primary hPBMCs [3]; [17]) | EC50 (primary hPBMCs [3]; [18]) | further results |
| --- | --- | --- | --- | --- | --- | --- | --- | --- | --- | --- | --- | --- | --- | --- | --- | --- | --- | --- | --- | --- |
| N—[(R)-3-Decyloxytetradecanoyl]-O-[2,3-di-[(R)-3-decyloxytetradecanoylamino]-2,3-dideoxy-4-O-methylphosphono-β-D-allopyranosyl]-L-serine triethylammonium salt [Compound 7] | 0.78 nM | dose dependent adjuvant effect | – | – | – | – | – | – | – | – | – | – | – | – | – | – | – | – | – | EC50 (primary hPBMCs [1]; read-out: hPBMCs EC50 RANTES, Table 4b, Average of Donors 22, 5): 0.006 nM; EC50 (primary hPBMCs [1]; read-out: hPBMCs EC50 RANTES, Table 4b, Donor 5): 0.0041 nM; EC50 (primary hPBMCs [1]; read-out: hPBMCs EC50 RANTES, Table 4b, Donor 22): 0.008 nM; EC50 (primary hPBMCs [3]; read-out: hPBMCs EC50 MIP-1β, Table 4b, Average of Donors 22, 5): 0.0083 nM; EC50 (primary hPBMCs [3]; read-out: hPBMCs EC50 MIP-1β, Table 4b, Donor 5): 0.0033 nM; EC50 (primary hPBMCs [3]; read-out: hPBMCs EC50 MIP-1β, Table 4b, Donor 22): 0.0133 nM |
| CCCCCCCCCCC[C@H](CC(=O)N[C@H]1[C@H](OC[C@H](NC(=O)C[C@@H](CCCCCCCCCCC)OC(=O)CCCCCCCCC)C(=O)OC)O[C@H](CO)[C@@H](OP(=O)(O)O)[C@H]1NC(=O)C[C@@H](CCCCCCCCCCC)OC(=O)CCCCCCCCC)OC(=O)CCCCCCCCC [Compound 3, N—[(R)-3-Decanoyloxytetradecanoyl]-O-[2,3-di-[(R)-3-decanoyloxytetradecanoylamino]-2,3-dideoxy-4-O-phosphono-β-D-allopyranosyl]-L-serine methyl ester] | – | – | 3.95 nM | 0.462 nM | 0.0719 nM | 0.0158 nM | 0.158 nM | 0.0417 nM | 0.0112 nM | 0.0478 nM | 0.0314 nM | 0.0727 nM | 0.0394 nM | – | – | – | – | – | – | – |
| CCCCCCCCCCC[C@H](CC(=O)NC1C(NC(=O)C[C@@H](CCCCCCCCCCC)OCCCCCCCCCC)[C@H](OP(=O)(O)O)C(CO)O[C@H]1OC[C@H](NC(=O)C[C@@H](CCCCCCCCCCC)OCCCCCCCCCC)C(=O)O)OCCCCCCCCCC (stereo partly drawn) [Compound 4] | 1.39 nM | dose dependent adjuvant effect | 1.32 nM | 0.124 nM | 0.0083 nM | 0.0083 nM | 0.0081 nM | 0.0084 nM | 0.0014 nM | 0.0049 nM | 0.0059 nM | 0.0027 nM | 0.0062 nM | 0.0185 nM | 0.0149 nM | 0.0221 nM | 0.0137 nM | 0.0141 nM | 0.0133 nM | – |
| CCCCCCCCCCC[C@H](CC(=O)NCCO[C@@H]1OC(CO)[C@@H](OCP(=O)(O)O)[C@H](NC(=O)C[C@@H](CCCCCCCCCCC)OC(=O)CCCCCCCCC)C1NC(=O)C[C@@H](CCCCCCCCCCC)OC(=O)CCCCCCCCC)OC(=O)CCCCCCCCC (stereo partly drawn) [Compound 6] | 10.2 nM | – | – | – | – | – | – | – | – | – | – | – | – | 0.174 nM | 0.238 nM | 0.109 nM | 0.0791 nM | 0.036 nM | 0.122 nM | – |
| CCCCCCCCCCC[C@H](CC(=O)NCCO[C@@H]1OC(CO)[C@@H](OP(=O)(O)O)C(NC(=O)C[C@@H](CCCCCCCCCCC)OC(=O)CCCCCCCc2ccccc2)C1NC(=O)C[C@@H](CCCCCCCCCCC)OC(=O)CCCCCCCc1ccccc1)OC(=O)CCCCCCCc1ccccc1 (stereo partly drawn) [Compound 8, 2-[(R)-3-(8-phenyl)octanoyloxytetradecanoylamino]ethyl 2,3-di-[(R)-3-(8-phenyl)octanoyloxytetradecanoylamino]-2,3-dideoxy-4-O-phosphono-β-D-allopyranoside triethylammonium Salt] | 4.99 nM | – | – | – | – | – | – | – | – | – | – | – | – | – | – | – | – | – | – | EC50 (primary hPBMCs [1]; [19]): 0.0391 nM; EC50 (primary hPBMCs [3]; [20]): 0.0418 nM |
| CCCCCCCCCCC[C@H](CC(=O)NCCO[C@@H]1O[C@H](CO)[C@@H](OP(=O)(O)O)[C@@H](NC(=O)C[C@@H](CCCCCCCCCCC)OC(=O)CCCCCCCCC)[C@H]1NC(=O)C[C@@H](CCCCCCCCCCC)OC(=O)CCCCCCCCC)OC(=O)CCCCCCCCC [Compound 1, 2-[(R)-3-decanoyloxytetradecanoylamino]ethyl 2,3-di-[(R)-3-decanoyloxytetradecanoylamino]-2,3-dideoxy-4-O-phosphono-β-D-allopyranoside] | 19.7 nM | – | 13.7 nM | 0.251 nM | 0.0205 nM | 0.0121 nM | 0.0254 nM | 0.0239 nM | 0.0576 nM | 0.0214 nM | 0.0198 nM | 0.0241 nM | 0.0202 nM | 0.135 nM | 0.0899 nM | 0.179 nM | 0.18 nM | 0.0761 nM | 0.285 nM | time with no degradation [4]: 6 weeks |
| CCCCCCCCCCC[C@H](CC(=O)NCCO[C@@H]1OC(CO)[C@@H](OP(=O)(O)O)C(NC(=O)C[C@@H](CCCCCCCCCCC)OC(=O)CCCCCCCc2ccccc2)C1NC(=O)C[C@@H](CCCCCCCCCCC)OC(=O)CCCCCCCCC)OC(=O)CCCCCCCCC (stereo partly drawn) [Compound 9, 2-[(R)-3-decanoyloxytetradecanoylamino]ethyl, 2-[(R)-3-decanoyloxytetradecanoylamino]-3-[(R)-3-(8-phenyl)octanoyloxytetradecanoylamino]-2,3-dideoxy-4-O-phosphono-β-D-allopyranoside triethylammonium salt] | 15.7 nM | – | – | – | – | – | – | – | – | – | – | – | – | – | – | – | – | – | – | EC50 (primary hPBMCs [1]; [19]): 0.143 nM; EC50 (primary hPBMCs [3]; [20]): 0.182 nM |
| CCCCCCCCCCC[C@H](CC(=O)NC1[C@H](OC[C@H](NC(=O)C[C@@H](CCCCCCCCCCC)OCCCCCCCCCC)C(=O)O)OC(CO)[C@@H](OS(=O)(=O)O)[C@@H]1NC(=O)C[C@@H](CCCCCCCCCCC)OCCCCCCCCCC)OCCCCCCCCCC (stereo partly drawn) [Compound 5, N—[(R)-3-Decyloxytetradecanoyl]-O-[2,3-di-[(R)-3-decyloxytetradecanoylamino]-2,3-dideoxy-4-O-sulfoxy-β-D-allopyranosyl]-L-serine] | 2.9 nM | dose dependent adjuvant effect | – | – | – | – | – | – | – | – | – | – | – | 0.0238 nM | 0.0156 nM | 0.0319 nM | 0.027 nM | 0.0151 nM | 0.039 nM | – |

From patent publication US20250170156A1, “TOLL-LIKE RECEPTOR LIGANDS” (INIMMUNE CORPORATION, priority 2018, published 2025)
